How the values were obtained:
p38MAPK = assay: Phospho-p38MAPK ELISA; format: cell-based, rat; conditions: 10 μM Aβ1-42 oligomers for 30 min, 100 μg/mL antibody
Method: FIG. 5 provides graphs and immunocytochemical images corresponding to the experiments described in Example 6.6. […] An IgG1 monoclonal antibody not binding to Aβ was used as control. The activity of p38MAP K was measured by a phospho-specific ELISA as described in Methods (A). The mean (±SEM) of 4 independent experiments is shown. Statistical analysis was done using one-way ANOVA followed by Tukey post-hoc multiple comparison. Activation of p38MAPK with Aβ1-42 oligomers complexed with monoclonal antibody was specific to microglia (B). Cells were treated as described above and then stained for phospho-p38MAP K (green), with Iba1 (red), and with DAPI (blue). […] Pure microglia from CX3CR1-GFP mice were used to verify microglia-specific p38 activity (C). […] A cytotoxicity assay using the MTT readout was performed after 24 h. The mean (±SEM) of 4 experiments is shown. […]
Rat cortical cultures were seeded onto poly-L-lysine coated 6-well cell-culture plates (Costar, Cambridge, Mass., USA) and used at DIV 5. […] Protein concentration was determined by the BCA assay (Pierce, Rockford, Ill., USA). For semi-quantitative measure of p38MAPK activation, a rat phospho-p38MAPK colorimetric ELISA kit was used (Cell Signaling Technology, Beverly, Mass., USA), following the manufacturer's instructions. Plates were read on a spectrophotometric microplate reader (Tecan) at a […]. […]

FcγRIIIa-V158 = target: T1, FcγRIIIa-V158 (Homo sapiens, UniProt P08637, F176V); assay: FcγR binding ELISA, FcγRIIIa-V158; conditions: cross-linked IgG mAb
T1 construct: fusion proteins containing the extracellular domain of the receptor γ-chain
T1 sequence (P08637 17-208 F176V): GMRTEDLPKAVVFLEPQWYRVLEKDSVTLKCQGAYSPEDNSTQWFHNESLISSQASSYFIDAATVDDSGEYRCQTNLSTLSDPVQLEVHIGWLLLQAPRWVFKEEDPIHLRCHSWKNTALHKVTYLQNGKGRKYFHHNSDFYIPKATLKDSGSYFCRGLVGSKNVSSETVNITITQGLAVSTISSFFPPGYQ
Method: The ability of these different monoclonal antibody backbones to internalize Aβ1-42 oligomers into microglia was then compared using confocal imaging on Aβ1-42 oligomer treated primary cortical microglia. […] To verify that microglia are indeed the cells taking up Aβ1-42 complexed to monoclonal antibodies, the study was repeated using HiLyte Fluor-488 tagged Aβ1-42 and co-stained for the microglial marker Iba1.
(§1) The binding of test antibodies to a panel of human Fcγ receptors (FcγRs) was measured using enzyme-linked immunosorbent assay (ELISA). Human FcγRs (Genentech, Inc., CA) are fusion proteins containing the extracellular domain of the receptor γ-chain with a Gly/6xHis/glutathione S transferase (GST) polypeptide tag at the C terminus. A monoclonal antibody with human IgG1 framework was used as the positive control (IgG1 control) in this experiment. Plates were coated with a mouse monoclonal anti GST antibody (Genentech, Inc.) in a 0.05 M sodium carbonate buffer (pH 9.6) overnight at 4° C. After blocking with an assay buffer containing phosphate buffered saline (PBS), 0.5% BSA, and 0.05% Tween-20, the plates were incubated with FcγRs at room temperature for 1 h. Human FcγRs were immobilized to the plate via interaction with the anti-GST coating. […] Diluted samples were applied as monomeric forms for the high affinity receptor (FcγRIa), or multimeric forms for the low affinity receptors (FcγRIIa, FcγRIIb, and FcγRIIIa). […] The antibodies bound to the FcγRs were detected with horseradish peroxidase (HRP)-conjugated F(ab′)2 fragment of goat anti human F(ab′)2 (Jackson ImmunoResearch Laboratories; West Grove, Pa.). […] The reaction was terminated with 1 M H3PO4, and absorbance at 450 nm with reference at 650 nm was measured on a plate reader (Molecular Devices, Sunnyvale, Calif.). Binding curves were generated by plotting the mean absorbance values from duplicates of sample dilutions against the respective sample absorbance.

microglia = assay: Confocal imaging of microglial uptake of Aβ1-42 oligomers; format: cell-based, rat; conditions: for Aβ1-42 oligomer internalization into microglia, rank order: primary cortical microglia
Method: Aβ1-42 oligomers are shown in red, and blue is DAPI staining of DNA to show the microglia itself (A). An apical-to-distal slice was obtained from a three-dimensional image rendered from Z-stacks. Confocal imaging was performed on mixed cortical cells labeled for Aβ (red) and stained with DAPI (blue) as described in the Example Section under Materials and Methods. Microglia were identified and scanned for the maximum fluorescence intensity through a series of confocal stacks representing intracellular locations (B), and the total area of fluorescent signal above a minimum threshold was quantified (C). Each mark on the graph represents the total area of Aβ stained within a single cell. A minimum of 20 cells were analyzed for each treatment condition. Data were compared using one-way ANOVA followed by Tukey post-hoc multiple comparison. Means (±SEM) are shown. […] Red is Iba1 staining, green is HyLite Fluor-488-labeled Aβ1 42, and blue is DAPI staining. […] Statistical analysis was done using one-way ANOVA followed by Tukey post-hoc multiple comparison.
Cells were grown on a glass coverslips. Following treatment, cells were quickly washed with PBS and then fixed with 4% paraformaldehyde for 20 min. After thorough washes, cells were immersed in 100% methanol for 10 min at −20° C. They were then washed again and incubated in a blocking solution, PBS containing 10% normal goat serum for 1 h at room temperature. After an overnight incubation with the primary antibody, cells were washed and incubated for 2 h with the secondary antibody, then washed and mounted on glass slides using ProLong Gold antifade reagent (Invitrogen). Epifluorescence and confocal images were acquired on a LSM 700 inverted microscope from Zeiss, using a 63× lens. Fluorescence intensity was measured in cell bodies delineated by saturated epifluorescence pictures. Z-stacks were rendered into a three-dimensional image using ImageJ 1.42 (National Institutes of Health, freeware) from which an apical to distal slice containing the labeled proteins was obtained. Cells treated with HyLite Fluor-488-tagged Aβ1-42 were treated in the same way except no primary or secondary antibodies were used to label for Aβ1-42.

[1] = tested on: human Fcγ receptors (FcγRIa, FcγRIIa, FcγRIIb, FcγRIIIa); assay: FcγR binding ELISA, panel of human Fcγ receptors; conditions: cross-linked antibody
Method: FIG. 10 provides graphs and immunocytochemical images corresponding to the experiments described in Example 6.5. […] These findings are consistent with published data for human IgG4 antibodies (Gessner et al., 1998) and IgG1 antibodies carrying the D265A mutation (Shields et al., 2001).
as §1, with “FcγRIIIa). The multimeric forms of test antibodies were generated by cross linking F(ab′)2 fragment of goat anti human κ-chain (MP Biomedicals, Solon, Ohio), with test monoclonal antibody at an approximate molar ratio of 3:1. The plates were incubated with FcγRs at room temperature for 2 h.” for “FcγRIIIa).”

binding to FcγRIIIa-V158, hierarchy (FcγRIIIa-V158) | Substance | Aβ1-42 oligomer-induced p38MAPK activity (p38MAPK) | microglial morphology and Iba1 staining (microglia; Aβ1-42 in combination with antibody) | Aβ1-42 oligomer internalization into microglia, rank order (microglia) | binding to FcγRs [1] | uptake of Aβ1-42 oligomers into microglia (microglia; mixed neuronal cultures, apparent from 30 minutes)
MABT-IgG>MABT>MABT-IgG1-D265A | MABT-IgG1: same antigen binding sequences as MABT on human IgG1 wild-type backbone with full FcγR-binding capacity | increased the Aβ1-42 oligomer-induced p38MAPK activity even further | more condensed nuclei and brighter Iba1 staining | MABT-IgG1>MABT>MABT-IgG1-D265A | bound to all FcRγ receptors with activities similar to the positive non-Aβ-binding IgG1 control | 
MABT-IgG>MABT>MABT-IgG1-D265A | MABT: humanized anti-Aβ monoclonal antibody of IgG4 isotype, affinity matured and humanized form of mouse mMABT | did not reduce the Aβ1-42 oligomer-induced p38MAPK activity, but rather showed a trend towards higher activity |  | MABT-IgG1>MABT>MABT-IgG1-D265A | substantially reduced binding to all the FcγRs | mediated rapid uptake of Aβ1-42 oligomers into cellular profiles likely to be microglia

Source: patent publication US9221900B2, “Methods for identifying safe and functional humanized antibodies” (AC IMMUNE S.A., priority 2010, dated 2015)
